Measured values as given in ChEMBL document CHEMBL1201862, “PubChem BioAssay data set” (2004).
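Five concentrations, 48 hours, 96-well plates. At the GI50, growth is halved.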 The source made the active and inactive calls. Rule as the data show it: active = GI50 up to about 1.1 µM and inactive = higher.

Columns and labels:
Assay in all cases: NCI-60 cell line screen, 48 h
[1] = tested on: HOP-92
[2] = tested on: MDA-N
[3] = tested on: OVCAR-3
[4] = tested on: LOX IMVI
[5] = tested on: SK-OV-3
[6] = tested on: MOLT-4
[7] = tested on: IGROV-1
[8] = tested on: 786-0
[9] = tested on: SK-MEL-2
[10] = tested on: RPMI-8226
[11] = tested on: UO-31
[12] = tested on: SK-MEL-28
[13] = tested on: ACHN
[14] = tested on: EKVX
[15] = tested on: NCI-H226
[16] = tested on: SW-620
[17] = tested on: SNB-75
[18] = tested on: UACC-257
[19] = tested on: SK-MEL-5
[20] = tested on: A498

Measured: GI50

O=C1CCCC2(c3ccccc3)Nc3ccccc3N12 (centres undefined)
inactive: [1] > 100 µM | [2] > 100 µM | [3] > 100 µM | [4] > 100 µM | [5] > 100 µM | [6] > 100 µM | [7] > 100 µM | [8] > 100 µM | [9] > 100 µM | [10] > 100 µM | [11] > 100 µM | [12] > 100 µM | [13] > 100 µM | [14] > 100 µM | [15] > 100 µM | [16] > 100 µM | [17] > 100 µM | [18] > 100 µM | [19] > 100 µM

COc1ccc(-c2c3c(n(C4OC(COC(C)=O)C(OC(C)=O)C(OC(C)=O)C4OC(C)=O)c(=S)c2C#N)CCC3)cc1 (centres undefined)
inactive: [1] 6.82 µM | [2] > 100 µM | [3] > 100 µM | [4] > 100 µM | [5] > 100 µM | [6] > 100 µM | [7] > 100 µM | [8] > 100 µM | [9] > 100 µM | [10] > 100 µM | [11] 81.3 µM | [12] > 100 µM | [13] > 100 µM | [16] > 100 µM | [17] > 100 µM | [18] > 100 µM | [19] 38.8 µM

CN1CNc2nc(N)n(C)c(=O)c2C1
inactive: [1] > 10 µM | [2] > 10 µM | [3] > 10 µM | [5] > 10 µM | [6] > 10 µM | [7] > 10 µM | [8] > 10 µM | [9] > 10 µM | [11] > 10 µM | [13] > 10 µM | [14] > 10 µM | [15] > 10 µM | [17] 7.46 µM | [18] > 10 µM

Cc1ccc(CC[PH](=O)CCc2ccc(C)nc2)cn1
inactive: [1] > 100 µM | [2] > 100 µM | [3] > 100 µM | [4] > 100 µM | [5] > 100 µM | [6] > 100 µM | [7] > 100 µM | [8] > 100 µM | [10] > 100 µM | [12] > 100 µM | [13] > 100 µM | [14] > 100 µM | [15] > 100 µM | [16] > 100 µM | [18] > 100 µM | [19] > 100 µM

COc1cc(-c2nnc3n2NC=C(C(=O)O)S3)cc(OC)c1OC
inactive: [1] > 100 µM | [20] > 100 µM | [3] > 100 µM | [4] > 100 µM | [5] > 100 µM | [6] > 100 µM | [7] > 100 µM | [8] > 58.7 µM | [9] > 100 µM | [10] > 49.4 µM | [11] > 100 µM | [12] > 100 µM | [13] > 100 µM | [14] > 100 µM | [15] > 100 µM | [16] > 39.5 µM | [17] > 100 µM | [18] > 100 µM | [19] > 100 µM

O=C1CNc2cc(N3CCN(c4ccccc4)CC3)ccc2N1
inactive: [1] > 100 µM | [20] > 100 µM | [3] > 100 µM | [4] > 100 µM | [5] > 100 µM | [6] > 100 µM | [7] > 100 µM | [8] > 100 µM | [9] > 100 µM | [10] > 100 µM | [11] > 100 µM | [12] > 100 µM | [13] > 100 µM | [14] 34.1 µM | [15] > 100 µM | [16] > 100 µM | [17] > 100 µM | [18] > 100 µM | [19] > 100 µM

CCCN1C(=O)CNC(=O)c2[nH]cnc21
inactive: [1] > 100 µM | [20] > 100 µM | [3] > 100 µM | [4] > 100 µM | [5] > 100 µM | [6] > 100 µM | [7] > 100 µM | [8] > 100 µM | [9] > 100 µM | [10] > 100 µM | [11] > 100 µM | [12] > 100 µM | [13] > 100 µM | [14] > 100 µM | [15] > 100 µM | [16] > 100 µM | [17] > 100 µM | [18] > 100 µM | [19] > 100 µM

COC1CC(OC2C(C)OC(OC3C(C)OC(OC4C(C)OC(O[C@H]5CC[C@@]6(C)C(=CC[C@]7(O)[C@@H]6C[C@@H](OC(C)=O)[C@@]6(C)[C@]7(O)CC[C@@]6(O)C(C)=O)C5)CC4OC)CC3OC)CC2OC)OC(C)C1O (some centres undefined)
inactive: [1] > 25 µM | [2] > 25 µM | [3] > 25 µM | [4] > 25 µM | [5] > 25 µM | [6] > 25 µM | [7] > 25 µM | [8] > 25 µM | [9] > 25 µM | [10] > 25 µM | [11] > 25 µM | [13] > 25 µM | [14] > 25 µM | [15] > 25 µM | [16] > 25 µM | [17] > 25 µM | [18] > 25 µM | [19] > 25 µM

Cn1cnc(S[C@H]2[C@H]3C(=O)C=C4S[C@H]5C[C@]42C2=C(N5)C(=O)c4[nH]cc5c4C2=[N+]3CC5)c1C[C@H](N)C(=O)O
inactive: [1] 18.9 µM | [20] 18.8 µM | [3] 3.5 µM | [4] 13.1 µM | [5] 21.4 µM | [6] 12.7 µM | [7] 16.4 µM | [8] 19 µM | [9] 13.7 µM | [10] 16.7 µM | [11] 17.5 µM | [12] 16.8 µM | [13] 14.8 µM | [14] 17.7 µM | [15] 19.4 µM | [16] 6.14 µM | [17] 18.7 µM | [18] 16.1 µM | [19] 13.4 µM

C=CCn1cc(C(=O)NC(=O)NCCCCCOC(=O)CCCCCCCCCCC(=O)OCCCCCNC(=O)NC(=O)c2cn(CC=C)c(=O)n(C)c2=O)c(=O)n(C)c1=O
inactive: [1] > 100 µM | [20] > 100 µM | [3] > 100 µM | [4] > 100 µM | [5] > 100 µM | [6] > 100 µM | [7] > 100 µM | [8] > 100 µM | [9] > 100 µM | [10] > 100 µM | [11] > 100 µM | [12] > 100 µM | [13] > 100 µM | [14] > 100 µM | [15] > 100 µM | [16] > 100 µM | [17] > 100 µM | [18] > 100 µM | [19] > 100 µM

CCc1cc2c(oc3c4ccccc4ccc23)c(=O)[nH]1
inactive: [1] > 10 µM | [2] > 10 µM | [3] > 10 µM | [4] > 10 µM | [5] > 10 µM | [6] > 10 µM | [7] > 10 µM | [8] > 10 µM | [11] > 10 µM | [13] > 10 µM | [14] > 10 µM | [15] > 10 µM | [16] > 10 µM | [17] > 10 µM | [18] > 10 µM
